Reference: patent publication EP4745137A1 (Gluetacs Therapeutics (Shanghai) Co., Ltd., priority 2023, dated 2025)
pIC50: −log10 of the molar value.

Key:
IKZF2 = target: T1, IKZF2 (Homo sapiens, UniProt Q96SW2+Q9UKS7); assay: Western-blot assay of substrate protein degradation in hPBMCs, IKZF2; type: cell-based; details: 24 hours of compound treatment, compounds tested at 50 nM and 500 nM (concentration of the table not stated)
T1 construct: endogenous in cells; host or cells: hPBMCs (Milecell Biotechnologies)
T1 sequence (Q9UKS7 whole entry): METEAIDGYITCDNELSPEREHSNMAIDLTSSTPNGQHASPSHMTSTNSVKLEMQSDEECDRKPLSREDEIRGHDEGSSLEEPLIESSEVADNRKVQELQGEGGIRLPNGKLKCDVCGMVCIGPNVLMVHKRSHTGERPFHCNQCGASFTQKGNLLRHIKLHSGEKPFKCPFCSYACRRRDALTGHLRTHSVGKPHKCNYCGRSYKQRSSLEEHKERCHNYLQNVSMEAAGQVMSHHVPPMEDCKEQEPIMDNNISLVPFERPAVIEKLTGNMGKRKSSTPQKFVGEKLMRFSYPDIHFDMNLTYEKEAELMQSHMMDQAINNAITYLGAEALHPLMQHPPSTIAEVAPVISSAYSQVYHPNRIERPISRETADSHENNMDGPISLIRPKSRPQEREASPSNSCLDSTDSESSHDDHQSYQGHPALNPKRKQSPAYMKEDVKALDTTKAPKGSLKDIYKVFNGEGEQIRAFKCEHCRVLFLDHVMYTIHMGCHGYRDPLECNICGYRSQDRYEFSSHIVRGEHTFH
T1 sequence (Q96SW2 whole entry): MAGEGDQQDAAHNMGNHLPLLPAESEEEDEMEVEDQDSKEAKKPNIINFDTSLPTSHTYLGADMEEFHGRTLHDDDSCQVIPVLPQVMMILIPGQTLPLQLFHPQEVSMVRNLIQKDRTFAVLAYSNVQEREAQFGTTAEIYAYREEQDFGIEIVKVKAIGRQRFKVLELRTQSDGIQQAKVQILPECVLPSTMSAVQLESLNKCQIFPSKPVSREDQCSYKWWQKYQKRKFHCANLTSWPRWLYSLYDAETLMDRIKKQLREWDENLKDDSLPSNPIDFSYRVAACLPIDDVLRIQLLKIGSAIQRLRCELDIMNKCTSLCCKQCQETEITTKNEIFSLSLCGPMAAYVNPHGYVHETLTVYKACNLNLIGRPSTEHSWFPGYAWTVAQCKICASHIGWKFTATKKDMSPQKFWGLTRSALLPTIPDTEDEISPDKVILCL
T1 sequence (Q16531 whole entry partner): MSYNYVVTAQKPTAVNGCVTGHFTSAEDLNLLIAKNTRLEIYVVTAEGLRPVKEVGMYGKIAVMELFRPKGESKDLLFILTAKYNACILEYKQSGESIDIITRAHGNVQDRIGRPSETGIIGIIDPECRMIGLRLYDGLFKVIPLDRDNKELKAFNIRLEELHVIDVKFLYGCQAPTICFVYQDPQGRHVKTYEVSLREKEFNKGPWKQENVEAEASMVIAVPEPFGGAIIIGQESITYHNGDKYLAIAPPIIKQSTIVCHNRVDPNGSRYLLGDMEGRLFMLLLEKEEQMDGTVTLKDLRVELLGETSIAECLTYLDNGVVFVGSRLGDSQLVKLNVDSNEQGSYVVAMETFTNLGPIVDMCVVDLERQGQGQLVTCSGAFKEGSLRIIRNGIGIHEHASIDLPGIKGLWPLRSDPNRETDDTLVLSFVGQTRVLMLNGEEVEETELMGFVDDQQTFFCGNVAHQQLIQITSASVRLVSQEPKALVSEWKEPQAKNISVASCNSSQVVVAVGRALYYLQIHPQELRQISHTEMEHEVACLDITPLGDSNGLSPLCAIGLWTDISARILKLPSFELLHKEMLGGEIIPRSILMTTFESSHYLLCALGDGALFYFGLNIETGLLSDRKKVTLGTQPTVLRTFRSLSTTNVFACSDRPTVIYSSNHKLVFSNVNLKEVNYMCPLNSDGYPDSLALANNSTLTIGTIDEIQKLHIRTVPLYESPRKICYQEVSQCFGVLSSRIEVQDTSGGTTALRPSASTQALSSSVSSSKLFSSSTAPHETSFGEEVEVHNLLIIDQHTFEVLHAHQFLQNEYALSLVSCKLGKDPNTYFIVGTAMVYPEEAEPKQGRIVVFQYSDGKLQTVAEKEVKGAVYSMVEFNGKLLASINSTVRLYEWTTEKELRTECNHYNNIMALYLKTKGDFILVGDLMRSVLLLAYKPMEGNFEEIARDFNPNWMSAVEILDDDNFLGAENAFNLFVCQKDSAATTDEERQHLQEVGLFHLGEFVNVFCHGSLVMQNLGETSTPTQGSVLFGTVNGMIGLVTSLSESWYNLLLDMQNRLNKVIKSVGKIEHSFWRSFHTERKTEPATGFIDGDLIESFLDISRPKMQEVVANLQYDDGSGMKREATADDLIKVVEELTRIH

NCI-H1975 = assay: Tumor cell proliferation inhibition (CellTiter-Meiluncell Luminescent Cell Viability Assay), NCI-H1975; details: Homo sapiens, NCI-H1975, 96 h, read-out: inhibitory activity (IC50, nM) against tumor cells proliferation, H1975
IKZF1 = target: T2, IKZF1 (Homo sapiens, UniProt Q13422+Q96SW2); assay: Western-blot assay of substrate protein degradation in hPBMCs, IKZF1; type: cell-based; details: 24 hours of compound treatment, compounds tested at 50 nM and 500 nM (concentration of the table not stated)
T2 construct: endogenous in cells; host or cells: hPBMCs (Milecell Biotechnologies)

TMD8 = assay: Tumor cell proliferation inhibition (CellTiter-Meiluncell Luminescent Cell Viability Assay), TMD8; details: Homo sapiens, TMD8, 96 h, read-out: inhibitory activity (IC50, nM) against tumor cells proliferation, TMD8
Protocol: (§1) The tumor cells used herein were cultured in a cell culture medium listed in table 2 at 37°C in an incubator with 5% CO2. Prior to experimentation, all cell lines used were correctly identified by STR profiling, and tested negative for mycoplasma contamination using a mycoplasma detection kit through routine screenings.
(§2) On the following day, the test compounds of the present disclosure were subjected to serial dilution. […] Subsequently, 0.5 µL of the test compound dilution was transferred into the 96-well plate containing the cells, with each well containing 100 µL of cell culture medium. […] Into the 96-well plate, the diluted test compounds and corresponding detection reagents were added, resulting in final test compound concentrations of 500 nM and 10 nM, respectively. The experimental procedure is described below using the diluted 2 µM test compound as an example.
(§3) After the cells were treated with the compounds of the present disclosure for a specified period (the treatment durations were shown in Table 3), the cell viability assay reagent was added to the culture medium according to the kit's instructions to determine cell viability. […] All controls were treated using the same procedure as the compounds of the present disclosure. The growth inhibition curves for the compounds of the present disclosure were plotted using Prism GraphPad software, and the IC50 values were calculated therefrom.

[1] = target: T3, human Cereblon WT GST-tagged protein (Homo sapiens, UniProt Q96SW2); assay: CRBN-binding affinity by HTRF (CEREBLON BINDING kit); details: HTRF inhibitory activity, CEREBLON BINDING kit; read-out: HTRF IC50
T3 construct: purchased CISBIO 64BDCRBNPEH
T3 sequence (Q96SW2 whole entry): as the sequence (Q96SW2 whole entry) above

GSPT1 = target: T4, GSPT1 (Homo sapiens, UniProt P15170+Q96SW2); assay: Western-blot assay of substrate protein degradation in hPBMCs, GSPT1; type: cell-based; details: 24 hours of compound treatment, compounds tested at 50 nM and 500 nM (concentration of the table not stated)
T4 construct: endogenous in cells; host or cells: hPBMCs (Milecell Biotechnologies)
T4 sequence (P15170 whole entry): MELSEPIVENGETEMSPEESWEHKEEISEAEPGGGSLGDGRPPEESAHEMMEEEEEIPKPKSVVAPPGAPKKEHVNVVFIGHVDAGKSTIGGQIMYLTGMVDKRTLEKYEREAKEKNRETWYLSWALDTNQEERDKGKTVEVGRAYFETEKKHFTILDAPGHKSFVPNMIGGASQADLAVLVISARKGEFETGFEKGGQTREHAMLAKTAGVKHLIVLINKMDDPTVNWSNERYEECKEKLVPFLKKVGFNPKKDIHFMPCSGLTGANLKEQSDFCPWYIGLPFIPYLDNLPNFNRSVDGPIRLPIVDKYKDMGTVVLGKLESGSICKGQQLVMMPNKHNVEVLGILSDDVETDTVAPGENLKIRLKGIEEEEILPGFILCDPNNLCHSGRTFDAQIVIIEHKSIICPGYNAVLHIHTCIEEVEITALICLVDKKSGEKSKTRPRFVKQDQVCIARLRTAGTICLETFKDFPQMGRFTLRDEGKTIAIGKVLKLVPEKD
T4 sequence (Q96SW2 whole entry): as the sequence (Q96SW2 whole entry) above
T4 sequence (Q16531 whole entry partner): as the sequence (Q16531 whole entry partner) above

[2] = tested on: Human breast cancer cells (MDA-MB-231); assay: Tumor cell proliferation inhibition (CellTiter-Meiluncell Luminescent Cell Viability Assay), MDA-MB-231; details: MDA-MB-231, 96 h, read-out: inhibitory activity (IC50, nM) against tumor cells proliferation, MDA-MB-231
Protocol: as §1, §2, §3

[3] = tested on: Human acute T lymphocytic leukemia cells (Molt-4); assay: Tumor cell proliferation inhibition (CellTiter-Meiluncell Luminescent Cell Viability Assay), Molt-4; details: MOLT-4, 96 h, read-out: inhibitory activity (IC50, nM) against tumor cells proliferation, Molt 4
IKZF3 = target: T5, IKZF3 (Homo sapiens, UniProt Q96SW2+Q9UKT9); assay: Western-blot assay of substrate protein degradation in hPBMCs, IKZF3; type: cell-based; details: 24 hours of compound treatment, compounds tested at 50 nM and 500 nM (concentration of the table not stated)
T5 construct: endogenous in cells; host or cells: hPBMCs (Milecell Biotechnologies)
T5 sequence (Q9UKT9 whole entry): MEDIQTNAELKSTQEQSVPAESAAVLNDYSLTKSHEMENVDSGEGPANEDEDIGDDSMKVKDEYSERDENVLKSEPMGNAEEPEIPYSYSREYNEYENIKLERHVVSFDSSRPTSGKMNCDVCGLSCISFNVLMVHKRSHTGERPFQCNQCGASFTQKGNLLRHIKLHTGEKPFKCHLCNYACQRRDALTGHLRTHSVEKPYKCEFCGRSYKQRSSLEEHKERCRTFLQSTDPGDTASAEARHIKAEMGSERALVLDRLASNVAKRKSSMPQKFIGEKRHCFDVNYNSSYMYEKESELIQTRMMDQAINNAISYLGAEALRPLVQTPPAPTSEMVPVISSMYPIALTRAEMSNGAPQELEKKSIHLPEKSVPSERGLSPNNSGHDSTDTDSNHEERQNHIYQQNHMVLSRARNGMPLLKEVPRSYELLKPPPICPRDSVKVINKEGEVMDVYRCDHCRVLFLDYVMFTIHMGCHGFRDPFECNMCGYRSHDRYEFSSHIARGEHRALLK
T5 sequence (Q96SW2 whole entry): as the sequence (Q96SW2 whole entry) above
T5 sequence (Q16531 whole entry partner): as the sequence (Q16531 whole entry partner) above

CK1α = target: T6, CK1α (Homo sapiens, UniProt P48729+Q96SW2); assay: Western-blot assay of substrate protein degradation in hPBMCs, CK1α; type: cell-based; details: 24 hours of compound treatment, compounds tested at 50 nM and 500 nM (concentration of the table not stated)
T6 construct: endogenous in cells; host or cells: hPBMCs (Milecell Biotechnologies)
T6 sequence (P48729 whole entry): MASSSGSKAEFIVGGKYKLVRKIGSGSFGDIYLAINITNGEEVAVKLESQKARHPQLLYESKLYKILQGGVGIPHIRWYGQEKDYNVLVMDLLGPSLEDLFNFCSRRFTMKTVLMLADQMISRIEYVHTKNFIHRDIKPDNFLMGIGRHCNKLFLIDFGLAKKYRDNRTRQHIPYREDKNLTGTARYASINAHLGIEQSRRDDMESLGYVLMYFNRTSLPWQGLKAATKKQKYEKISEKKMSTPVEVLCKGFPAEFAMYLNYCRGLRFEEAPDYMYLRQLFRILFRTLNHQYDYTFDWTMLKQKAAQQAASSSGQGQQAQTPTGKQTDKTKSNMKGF
T6 sequence (Q96SW2 whole entry): as the sequence (Q96SW2 whole entry) above
T6 sequence (Q16531 whole entry partner): as the sequence (Q16531 whole entry partner) above

WEE1 = target: T7, WEE1 (Homo sapiens, UniProt P30291+Q96SW2); assay: Western-blot assay of substrate protein degradation in hPBMCs, WEE1; type: cell-based; details: 24 hours of compound treatment, compounds tested at 50 nM and 500 nM (concentration of the table not stated)
T7 construct: endogenous in cells; host or cells: hPBMCs (Milecell Biotechnologies)
T7 sequence (P30291 whole entry): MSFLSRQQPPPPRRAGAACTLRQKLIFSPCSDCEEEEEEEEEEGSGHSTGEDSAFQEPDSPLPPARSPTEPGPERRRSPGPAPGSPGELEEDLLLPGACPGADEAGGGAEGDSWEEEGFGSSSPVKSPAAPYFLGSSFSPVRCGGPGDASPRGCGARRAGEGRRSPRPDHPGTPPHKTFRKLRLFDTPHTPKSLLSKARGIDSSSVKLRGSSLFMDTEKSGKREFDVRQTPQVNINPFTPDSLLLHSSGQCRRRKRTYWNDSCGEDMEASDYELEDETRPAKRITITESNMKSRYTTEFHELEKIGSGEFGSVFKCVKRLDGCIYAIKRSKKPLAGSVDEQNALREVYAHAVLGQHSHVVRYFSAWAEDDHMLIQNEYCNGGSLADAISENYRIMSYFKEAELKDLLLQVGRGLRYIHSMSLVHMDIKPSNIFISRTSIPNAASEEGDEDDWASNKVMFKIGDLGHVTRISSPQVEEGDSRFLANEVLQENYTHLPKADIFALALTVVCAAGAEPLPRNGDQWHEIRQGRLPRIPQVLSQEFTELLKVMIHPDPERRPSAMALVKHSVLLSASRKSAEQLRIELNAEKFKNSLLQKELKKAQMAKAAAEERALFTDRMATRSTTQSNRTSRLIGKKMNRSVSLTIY
T7 sequence (Q96SW2 whole entry): as the sequence (Q96SW2 whole entry) above
T7 sequence (Q16531 whole entry partner): as the sequence (Q16531 whole entry partner) above

Structure (SMILES)	IKZF2 substrate protein remaining % (IKZF2)	IC50 (NCI-H1975) [nM]	IKZF 1 substrate protein remaining % (IKZF1)	IC50 (TMD8) [nM]	pIC50 [1]	GSPT1 substrate protein remaining % (GSPT1)	IC50 [2] [nM]	IC50 [3] [nM]	IKZF3 substrate protein remaining % (IKZF3)	CK1a substrate protein remaining % (CK1α)	Weel substrate protein remaining % (WEE1)
Cc1ccc(C2CCN(Cc3ccc4c(c3)CN(C3CCC(=O)NC3=O)C4=O)CC2)s1 (centres unmarked) [GT-04573, 3-(5-((4-(5-methylthiophen-2-yl)piperidin-1-yl)methyl)-1-oxoisoindolin-2-yl)piperidine-2,6-dione]	A (0% ≤ substrate protein remaining % ≤ 80%)	50 to 100	A (0% ≤ substrate protein remaining % ≤ 80%)	50 to 100	5.82 to 6.00	A (0% ≤ substrate protein remaining % ≤ 80%)	10 to 50	5 to 10	A (0% ≤ substrate protein remaining % ≤ 80%)	A (0% ≤ substrate protein remaining % ≤ 80%)	A (0% ≤ substrate protein remaining % ≤ 80%)
O=C1CCC(N2Cc3cc(CN4CC=C(c5ccsc5)CC4)ccc3C2=O)C(=O)N1 (centres unmarked) [GT-04585, 3-(1-oxo-5-((4-(thiophen-3-yl)-3,6-dihydropyridin-1(2H)-yl)methyl)isoindolin-2-yl)piperidine-2,6-dione]	A (0% ≤ substrate protein remaining % ≤ 80%)	10 to 50	A (0% ≤ substrate protein remaining % ≤ 80%)	10 to 50	> 6.30	A (0% ≤ substrate protein remaining % ≤ 80%)	5 to 10	1 to 5	A (0% ≤ substrate protein remaining % ≤ 80%)	A (0% ≤ substrate protein remaining % ≤ 80%)	A (0% ≤ substrate protein remaining % ≤ 80%)
O=C1CCC(N2Cc3cc(CN4CCC(c5ccsc5)CC4)ccc3C2=O)C(=O)N1 (centres unmarked) [GT-04586, 3-(1-oxo-5-((4-(thiophen-3-yl)piperidin-1-yl)methyl)isoindolin-2-yl)piperidine-2,6-dione]	A (0% ≤ substrate protein remaining % ≤ 80%)	100 to 500	B (80%< substrate protein remaining %≤ 100%)	100 to 500	6.00 to 6.30	A (0% ≤ substrate protein remaining % ≤ 80%)	10 to 50	5 to 10	B (80%< substrate protein remaining %≤ 100%)	B (80%< substrate protein remaining %≤ 100%)	B (80%< substrate protein remaining %≤ 100%)
Cc1cc(C2=CCN(Cc3ccc4c(c3)CN(C3CCC(=O)NC3=O)C4=O)CC2)cs1 (centres unmarked) [GT-04587, 3-(5-((4-(5-methylthiophen-3-yl)-3,6-dihydropyridin-1(2H)-yl)methyl)-1-oxoisoindolin-2-yl)piperidine-2,6-dione]	A (0% ≤ substrate protein remaining % ≤ 80%)	5 to 10	A (0% ≤ substrate protein remaining % ≤ 80%)	10 to 50	6.00 to 6.30	A (0% ≤ substrate protein remaining % ≤ 80%)	1 to 5	1 to 5	A (0% ≤ substrate protein remaining % ≤ 80%)	B (80%< substrate protein remaining %≤ 100%)	A (0% ≤ substrate protein remaining % ≤ 80%)
Cc1cc(C2CCN(Cc3ccc4c(c3)CN(C3CCC(=O)NC3=O)C4=O)CC2)cs1 (centres unmarked) [GT-04588, 3-(5-((4-(5-methylthiophen-3-yl)piperidin-1-yl)methyl)-1-oxoisoindolin-2-yl)piperidine-2,6-dione]	A (0% ≤ substrate protein remaining % ≤ 80%)	50 to 100	B (80%< substrate protein remaining %≤ 100%)	100 to 500	5.82 to 6.00	A (0% ≤ substrate protein remaining % ≤ 80%)	10 to 50	5 to 10	B (80%< substrate protein remaining %≤ 100%)	B (80%< substrate protein remaining %≤ 100%)	B (80%< substrate protein remaining %≤ 100%)
O=C1CCC(N2Cc3cc(CN4CC=C(c5ccoc5)CC4)ccc3C2=O)C(=O)N1 (centres unmarked) [GT-04589, 3-(5-((4-(furan-3-yl)-3,6-dihydropyridin-1(2H)-yl)methyl)-1-oxoisoindolin-2-yl)piperidine-2,6-dione]	A (0% ≤ substrate protein remaining % ≤ 80%)	100 to 500	B (80%< substrate protein remaining %≤ 100%)	500 to 1000	> 6.30	A (0% ≤ substrate protein remaining % ≤ 80%)	100 to 500	10 to 50	B (80%< substrate protein remaining %≤ 100%)	B (80%< substrate protein remaining %≤ 100%)	B (80%< substrate protein remaining %≤ 100%)
O=C1CCC(N2Cc3cc(CN4CC=C(c5c[nH]c6ncccc56)CC4)ccc3C2=O)C(=O)N1 (centres unmarked) [GT-04602, 3-(5-((4-(1H-pyrrolo[2,3-b]pyridin-3-yl)-3,6-dihydropyridin-1(2H)-yl)methyl)-1-oxoisoindolin-2-yl)piperidine-2,6-dione]	A (0% ≤ substrate protein remaining % ≤ 80%)	10 to 50	A (0% ≤ substrate protein remaining % ≤ 80%)	10 to 50	> 6.30	A (0% ≤ substrate protein remaining % ≤ 80%)	10 to 50	1 to 5	A (0% ≤ substrate protein remaining % ≤ 80%)	A (0% ≤ substrate protein remaining % ≤ 80%)	A (0% ≤ substrate protein remaining % ≤ 80%)
O=C1CCC(N2Cc3cc(CN4CCN(c5cc(Cl)cc(Cl)c5)CC4)ccc3C2=O)C(=O)N1 (centres unmarked) [GT-04614, 3-(5-((4-(3,5-dichlorophenyl)piperazin-1-yl)methyl)-1-oxoisoindolin-2-yl)piperidine-2,6-dione]	B (80%< substrate protein remaining %≤ 100%)	10 to 50	B (80%< substrate protein remaining %≤ 100%)	10 to 50	6.00 to 6.30	A (0% ≤ substrate protein remaining % ≤ 80%)	10 to 50	1 to 5	B (80%< substrate protein remaining %≤ 100%)	B (80%< substrate protein remaining %≤ 100%)	A (0% ≤ substrate protein remaining % ≤ 80%)
O=C1CCC(N2Cc3cc(CN4CCN(c5nccc(Cl)c5Br)CC4)ccc3C2=O)C(=O)N1 (centres unmarked) [GT-04615, 3-(5-((4-(3-bromo-4-chloropyridin-2-yl)piperazin-1-yl)methyl)-1-oxoisoindolin-2-yl)piperidine-2,6-dione]	A (0% ≤ substrate protein remaining % ≤ 80%)	100 to 500	A (0% ≤ substrate protein remaining % ≤ 80%)	500 to 1000	6.00 to 6.30	A (0% ≤ substrate protein remaining % ≤ 80%)	100 to 500	10 to 50	A (0% ≤ substrate protein remaining % ≤ 80%)	A (0% ≤ substrate protein remaining % ≤ 80%)	A (0% ≤ substrate protein remaining % ≤ 80%)
O=C1CCC(N2Cc3cc(CN4CC=C(c5ccco5)CC4)ccc3C2=O)C(=O)N1 (centres unmarked) [GT-04617, 3-(5-((4-(furan-2-yl)-3,6-dihydropyridin-1(2H)-yl)methyl)-1-oxoisoindolin-2-yl)piperidine-2,6-dione]	A (0% ≤ substrate protein remaining % ≤ 80%)	100 to 500	A (0% ≤ substrate protein remaining % ≤ 80%)	100 to 500	> 6.30	A (0% ≤ substrate protein remaining % ≤ 80%)	10 to 50	5 to 10	A (0% ≤ substrate protein remaining % ≤ 80%)	B (80%< substrate protein remaining %≤ 100%)	A (0% ≤ substrate protein remaining % ≤ 80%)
